Patent publication US5681685A, “Photopolymerizable composition containing squarylium compound” (Kyowa Hakko Kogyo Co., Ltd., priority 1994, dated 1997)

Assays:
[1] = Degraded rate of squarylium compound in photosensitive resin solution with iron(II) hexafluorophosphate complex (Example 8); assay type: physicochemical; parameters: key: degraded rate relative to that of Compound (A); settings: 40° C., 32 days, light-screened, ethyl cellosolve, relative to Compound (A)
Protocol: (§1) 0.5 g of pentaerythritol triacrylate, 0.5 g of butyl methacrylate/acrylic acid copolymer (weight-average molecular weight 3,100, copolymerization ratio 66/34), 60 mg of 2,4,6-tris(trichloromethyl)-s-triazine and 2 mg of a squarylium compound were dissolved in ethyl cellosolve to 25 ml to give a photosensitive resin solution. This solution was light-screened and allowed to stand at 40° C. for 3 days. The absorbance at the maximum absorption wavelength present in 600 to 700 nm was measured with a spectrophotometer before (A1) and after (A2) being allowed to stand. The degraded rate of the squarylium compound was obtained according to the following equation:
(§2) Degraded rate (%)=(A1-A2)/A1 ×100
0.5 g of pentaerythritol triacrylate, 60 mg of polymethyl methacrylate (manufactured by Aldrich; weight-average molecular weight 12,000), 90 mg of (.eta.^6 -benzene)(.eta.^5 cyclopentadienyl)iron(II) hexafluorophosphate and 2 mg of a squarylium compound were dissolved in ethyl cellosolve to 25 ml to give a photosensitive resin solution. Thereafter, the same procedures as those in Example 7 were repeated except that a time for being allowed to stand of 3 days was replaced with that of 32 days to give the degraded rate of the squarylium compound. The degraded rate of squarylium Compounds 1 to 9 are shown as a relative value based on the degraded rate of Compound (A) in Table 6.

[2] = Degraded rate of squarylium compound in photosensitive resin solution with 2,4,6-tris(trichloromethyl)-s-triazine (Example 7); assay type: physicochemical; settings: 40° C., 3 days, light-screened, ethyl cellosolve, relative to Compound (A)
Protocol: as §1, §2
The degraded rates of squarylium Compounds 1 to 9 are shown as a relative value based on the degraded rate of Compound (A) in Table 5.

[3] = Sensitivity of photosensitive layer with 2,4,6-tris(trichloromethyl)-s-triazine (Example 9); settings: energy necessary for hardening, s-triazine radical generator
Description: (§3) 100 parts of pentaerythritol triacrylate, 100 parts of polymethacrylate polymer [synthesized according to the methods described in Jikkenkagakukoza, Maruzen K. K., 4th edition, volume 28, page 121, 1992; Kobunshigosei no Jikkenho (Experimental method for polymer synthesis), Kagakudojin K. K., coauthored by Takayuki Otsu and Masaetsu Kinoshita, page 138, 1972; average molecular weight 150,000; methyl ester/isobutyl ester/cyclohexyl ester/free carboxylic acid=27/36/25/12], 7.9 parts of 2,4,6-tris(trichloromethyl)-s-triazine and 1 part of a squarylium compound were dissolved in 1900 parts of ethyl cellosolve to give a photosensitive resin solution. This photosensitive solution was spin-coated on an aluminium plate treated with grinding and anodic oxidation, at 1000 rpm so that the dry-state thickness became 2 μm. On this, a 10% aqueous polyvinyl alcohol (Kurarey Poval 706) solution was spin-coated at 1500 rpm so that the dry-state thickness became 1 μm to give a over-coat layer. A step tablet was piled closely on the resulting photosensitive layer, and the rays having the wavelength around 630, 650 or 680 nm were irradiated from 3kw ultra-high pressure mercury lamp through a glass filter. The rays having the wavelength around 630 nm (155 μJ/cm^2 ·s) were obtained by passing the rays from the above mercury lamp through a colored glass filter R-61, an interference filter KL-63 (both were manufactured by Toshiba Glass Co., Ltd.) and a heat rays absorbing filter HA-30 (manufactured by HOYA Corporation), the rays having the wavelength around 650 nm (177 μJ/cm^2 ·s) were obtained by passing the rays from the above mercury lamp through a colored glass filter R-63, an interference filter KL-65 (both were manufactured by Toshiba Glass Co., Ltd.) and HA-30 and the rays having the wavelength around 680 nm (88 μJ/cm^2 ·s) were obtained by passing the rays from the above mercury lamp through a glass filter R-66, an interference filter KL-68 (both were manufactured by Toshiba Glass Co., Ltd.) and HA-30. Then, the development was carried out with a PS plate developer DN3C (manufactured by Fujiphoto Film Co., Ltd.) diluted 1.5-folds with distilled water, an ink was attached thereon with a PS plate developing ink PI-2 (manufactured by Fujiphoto Film Co., Ltd.) and the sensitivity was scored by obtaining an energy amount necessary for hardening from hardening step number with an ink attached thereto.

[4] = Optical absorption property in chloroform; assay type: physicochemical; settings: solvent chloroform
[5] = Sensitivity of photosensitive layer with 3,3',4,4'-tetrakis(tert-butyldioxycarbonyl)benzophenone (Example 11); settings: 630 nm
Description: as §3
The sensitivity when the rays having the wavelength around 630 nm were irradiated was obtained by repeating the same procedures as those of Example 9 except that 8 parts of 3,3',4,4'-tetrakis(tert-butyldioxycarbonyl)benzophenone was used in place of 7.9 parts of 2,4,6-tris(tichloromethyl)-s-triazine.

[6] = Sensitivity of photosensitive layer with iron(II) hexafluorophosphate complex and CARBOSET XL-44 (Example 10); settings: 630 nm; iron(II) hexafluorophosphate complex, CARBOSET XL-44
Description: as §3
The sensitivity when the rays having the wavelength around 630 nm were irradiated was obtained by repeating the same procedures as those in Example 9 except that 8 parts of (.eta.^6 -benzene) (.eta.^5 -cyclopentadienyl)iron(II) hexafluorophosphate was used in place of 7.9 parts of 2,4,6-tris(trichloromethyl)-s-triazine and CARBOSET,XL-44 (manufactured by BF Goodrich) was used in place of polymethacrylate polymer (methyl ester/isobutyl ester/cyclohexyl ester/free carboxylic acid=27/36/25/12).

[7] = disclosed in JP-A 63-138345, JP-A 63-142346, JP-A 2-48665; cited from earlier work
[8] = in the dark, light screened; background statement; cited from earlier work
[9] = background statement; cited from earlier work

Compound | Relative value of degraded rate [1] | Relative value of degraded rate [2] | logε [4] | λ max [4] [nm] | Sensitivity ([3]; 630 nm) [mJ/cm^2] | Sensitivity ([3]; 650 nm) [mJ/cm^2] | Sensitivity ([3]; 680 nm) [mJ/cm^2] | Sensitivity [5] [mJ/cm^2] | Sensitivity [6] [mJ/cm^2] | maximum absorption wavelength [7] [nm] | degradation in photosensitizer solution [8] | solubility in an organic solvent or a monomer [9]
CCCCCCN1C(=CC2=C([O-])C(=CC3=[N+](CCCCCC)c4ccc5ccccc5c4C3(C)C)C2=O)C(C)(C)c2c1ccc1ccccc21 [Compound 9] | 0.52 | 0.26 | 5.5 | 668 |  |  |  | 0.17 | 8.7 |  |  | 
CC(C)CCN1C(=CC2=C([O-])C(=CC3=[N+](CCC(C)C)c4ccc5ccccc5c4C3(C)C)C2=O)C(C)(C)c2c1ccc1ccccc21 [Compound 8] | 0.43 | 0.32 | 5.5 | 667 |  |  |  |  |  |  |  | 
CN1C(=CC2=C([O-])C(=CC3=[N+](C)c4ccc5ccccc5c4C3(C)C)C2=O)C(C)(C)c2c1ccc1ccccc21 [A, reference compound] | 1.0 | 1.0 |  |  | 0.91 | 0.56 | 0.65 | 0.43 | 11 | 673 | easily degraded in the dark | low solubility
CCCN1C(=CC2=C([O-])C(=CC3=[N+](CCC)c4ccc5ccccc5c4C3(C)C)C2=O)C(C)(C)c2c1ccc1ccccc21 [Compound 2] | 0.48 | 0.25 | 5.5 | 667 | 0.47 | 0.40 | 0.37 |  |  |  |  | 

The next lines start with results.

Relative value of degraded rate [1] | Relative value of degraded rate [2] | logε [4] | λ max [4] [nm] | Compound | Sensitivity ([3]; 630 nm) [mJ/cm^2] | Sensitivity ([3]; 650 nm) [mJ/cm^2] | Sensitivity ([3]; 680 nm) [mJ/cm^2] | Sensitivity [5] [mJ/cm^2] | Sensitivity [6] [mJ/cm^2] | maximum absorption wavelength [7] [nm] | degradation in photosensitizer solution [8] | solubility in an organic solvent or a monomer [9]
0.60 | 0.29 |  |  | CCCCN1C(=CC2=C([O-])C(=CC3=[N+](CCCC)c4ccc5ccccc5c4C3(C)C)C2=O)C(C)(C)c2c1ccc1ccccc21 [Compound 4] | 0.39 | 0.40 | 0.37 |  |  |  |  | 
0.51 | 0.34 |  |  | CCN1C(=CC2=C([O-])C(=CC3=[N+](CC)c4ccc5ccccc5c4C3(C)C)C2=O)C(C)(C)c2c1ccc1ccccc21 [Compound 1] | 0.47 | 0.40 | 0.37 |  |  |  |  | 
0.42 | 0.15 | 5.5 | 669 | CC(C)CN1C(=CC2=C([O-])C(=CC3=[N+](CC(C)C)c4ccc5ccccc5c4C3(C)C)C2=O)C(C)(C)c2c1ccc1ccccc21 [Compound 5] | 0.47 | 0.56 | 0.28 | 0.20 | 11 |  |  | 
0.46 | 0.28 | 5.5 | 667 | CCCCCN1C(=CC2=C([O-])C(=CC3=[N+](CCCCC)c4ccc5ccccc5c4C3(C)C)C2=O)C(C)(C)c2c1ccc1ccccc21 [Compound 6] | 0.56 | 0.40 | 0.37 | 0.099 | 5.8 |  |  | 
0.44 | 0.24 | 5.5 | 666 | CC(C)N1C(=CC2=C([O-])C(=CC3=[N+](C(C)C)c4ccc5ccccc5c4C3(C)C)C2=O)C(C)(C)c2c1ccc1ccccc21 [Compound 3] | 0.39 | 0.40 | 0.26 | 0.083 |  |  |  | 
0.56 | 0.31 |  |  | CCCCN1C(=CC2=C([O-])C(=CC3=[N+](CCCC)c4ccc5ccccc5c4C3(C)C)C2=O)C(C)(C)c2c1ccc1ccccc21 [Compound 7] | 0.47 | 0.40 | 0.37 | 0.20 | 5.8 |  |  | 
